# Article PMC3673896, “3,4-dihydroxyphenyl acetic acid and (+)-epoxydon isolated from marine algae-derived microorganisms induce down regulation of epidermal growth factor activated mitogenic signaling cascade in Hela cells” (Cancer Cell International, 2013)
# Biological target: EGF receptor tyrosine kinase (EGFR) (Homo sapiens, UniProt P00533)
# Test: AlphaScreen P-Tyr-100 kinase assay with poly[Glu:Tyr] ([…]) substrate
# Type: biochemical
# Chain of EGF receptor tyrosine kinase (EGFR) (P00533 669-1210 limits assumed): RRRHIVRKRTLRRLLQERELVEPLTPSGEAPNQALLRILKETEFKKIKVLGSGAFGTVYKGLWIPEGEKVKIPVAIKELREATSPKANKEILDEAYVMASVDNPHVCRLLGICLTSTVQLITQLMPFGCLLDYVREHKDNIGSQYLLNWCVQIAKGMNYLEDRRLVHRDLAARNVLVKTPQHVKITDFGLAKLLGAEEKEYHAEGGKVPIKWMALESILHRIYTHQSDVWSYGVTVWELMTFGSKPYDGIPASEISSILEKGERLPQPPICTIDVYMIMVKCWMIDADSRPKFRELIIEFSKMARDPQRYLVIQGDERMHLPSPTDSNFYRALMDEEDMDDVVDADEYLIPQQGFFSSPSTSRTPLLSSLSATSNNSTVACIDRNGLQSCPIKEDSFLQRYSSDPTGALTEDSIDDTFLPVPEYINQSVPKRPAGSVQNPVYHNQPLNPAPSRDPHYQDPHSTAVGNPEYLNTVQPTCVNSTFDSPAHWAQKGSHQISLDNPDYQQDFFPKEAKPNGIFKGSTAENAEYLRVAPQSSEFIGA
row,IC50,Structure (SMILES)
1,3.84 µM,O=C1C(CO)=C[C@@H](O)[C@H]2O[C@@H]12 [(+)-epoxydon]
2,16.7 µM,"O=C(O)Cc1ccc(O)c(O)c1 [3,4-dihydroxyphenyl acetic acid]"
